Source: patent EP1064940A1, “Antiviral therapy” (Universitair Medisch Centrum Utrecht, priority 1999, dated 2001)

Tests used:
Format in all cases: cell-based
[1] = tested on: HIV-1Ba-L; test: HIV-1 infection of monocyte-derived macrophages, p24-core antigen ELISA; conditions: Human immunodeficiency virus 1, Macrophage, MDM infected with HIV-1Ba-L, multiplicity of infection 0.02
Method: Cells are washed twice and monocytes are purified by countercurrent centrifugal elutriation. Cells are >98% monocytes by criteria of cell morphology on May-Grunwald-Giemsa-stained cytosmears and by nonspecific esterase staining using alpha-naphtylacetate (Sigma Chemical Co., St. Louis, MO) as substrate.
(§1) HIV-1 strain Ba-L is grown to high titer in MDM. The 50% tissue culture infectious dose (TCID50) of the virus stock is determined by endpoint dilution with serial fourfold dilutions in a 96-well microtiter plate on MDM. HIV-1 strain AT is grown to high titer in PHA-stimulated PBMC. The TCID50 of the virus stock is determined by endpoint dilution with serial fourfold dilutions in a 96-well microtiter plate on PBMC.
PBMC were washed twice and monocytes were purified by countercurrent centrifugal elutriation. […] Concentrations above 0.3 µM APHS inhibit p24 production. 30 µM APHS inhibits HIV-1 replication by 88%.

[2] = tested on: Monocyte-derived macrophages (MDM); test: MTT cytotoxicity assay in monocyte-derived macrophages; conditions: 4 days incubation in different concentrations
Method: Cell viability is assessed by the MTT assay. In short, cells are incubated with MTT 3-(4,5-dimethylthiazol-2-yl)-2,5-diphenyltetrazollumbromide (Sigma) for 2 hours at 37 °C. During this time viable cells convert MTT into […] formazan dyes. Afterwards crystals are solubilised with a solution containing isopropanol. The OD of the supernatant is measured at 550 nm.
Fig 3 - Monocyte-derived macrophages (MDM) were obtained like described in legend of Fig.2. […] After a 4 days incubation period cellular viability was assessed by MTT cytotoxicity assay where viable cells convert MTT into a colored formazan dye that can be measured spectrophotometrically.

[3] = tested on: HIV-1; test: HIV-1 infection of PHA-stimulated PBMC, p24-core antigen ELISA (strain not specified in the result); conditions: Human immunodeficiency virus 1; PHA-stimulated PBMC infected with HIV-1AT or HIV-1BaL; p24 after 4 and 5 days; read-out: Concentrations that inhibit HIV-1 production
Method: as §1

[4] = tested on: HIV-1BaL; test: HIV-1BaL infection of PHA-stimulated PBMC, p24-core antigen ELISA
Method: as §1

[5] = tested on: PBMC; test: WST-1 cytotoxicity assay in PBMC; conditions: 5 days incubation
Method: Cell viability is assessed with WST-1 assay. Cells are incubated with the tetrazolium salt WST-1 (4-[3-(4-lodophenyl)-2-(4-nitrophenyl)-2H-5-tetrazolio]-1,3-benzene disulfonate) for 2 hours at 37 °C. During this time viable cells convert WST-1 into water soluble formazan dyes. The OD of the supernatant is measured at 550 nm.
Fig 5 - PBMC were obtained and stimulated as described in legend of Fig. 4. […] After a 5 days incubation period cellular viability was assessed by WST-1 cytotoxicity assay where viable cells convert WST-1 into a coloured formazan dye that can be measured spectrophotometrically.

CCCCC#CCSc1ccccc1OC(C)=O [APHS, o-(acetoxy-phenyl)hept-2-ynyl sulphide]
inhibition at 30 µM ([1]; 30 µM APHS, read-out: inhibits HIV-1 replication by): 88%
minimal effective concentration ([1]; supernatant after 4 and 5 days, read-out: Concentrations that inhibit p24 production): > 0.3 µM
cytotoxicity (cellular viability, MTT) [2]: None of the tested concentrations of APHS was found to be cytotoxic
minimal effective concentration [3]: > 1 µM
inhibition at 1 µM ([4]; Human immunodeficiency virus 1, 1 µM APHS, when infectivity is lower (Fig 4c), read-out: inhibit HIV-1BaL production by): 50%
inhibition at 30 µM ([4]; Human immunodeficiency virus 1, 30 µM APHS, read-out: inhibit HIV-1BaL replication by): 100%
Concentrations found to reduce viability [5]: ≥ 100 µM
